Measurements published in patent EP4289421A1, “COMBINATION OF PALMITOYLETHANOLAMIDE (PEA) AND MELATONIN FOR THE TREATMENT OF MAST CELL HYPER-REACTIVITY” (Erbozeta S.p.A., priority 2022, dated 2023).

Test system: human mast cell line (HMC-1.1)
Test: Release of pro-pain and pro-inflammatory mediators (degranulation) by activated human mast cells
Format: cell-based
Details: HMC-1.1 activated by compound 48/80 or substance P; substances added individually or combined
Procedure: A human mast cell line (HMC-1.1) was activated both by compound 48/80 (a potent synthetic stimulant, available from Sigma-Aldrich) and by substance P (potent physiological stimulant, CAS number 33507-63-0). The release of pro-pain and pro-inflammatory mediators, such as histamine, TNF-α and IL-6, was then measured in the absence of PEA and melatonin, in the presence of PEA or melatonin alone as well as in the presence of PEA + melatonin. The use of mast cells of human origin, compared to classic murine mast cells, has allowed to measure, with high reliability, the release not only of histamine but also of protein mediators such as TNF-α and IL-6. The in vitro analysis then made it possible to evaluate the effects of the combination at the mast cell level in a highly specific and precise manner. A direct study on a biological organism, ultimately humans, would have been insensitive as the variation of pro-pain and pro-inflammatory mediators, detected in the blood or in any body fluid, would have depended on an action of PEA and melatonin on various cell types, and not exclusively on mast cells.

| SMILES | reduction in the release of mast cell mediators (histamine, TNF-α, IL-6) |
| --- | --- |
| CCCCCCCCCCCCCCCC(=O)NCCO [PEA, palmitoylethanolamide] | comparable reduction in the release of mast cell mediators |
| COc1ccc2[nH]cc(CCNC(C)=O)c2c1 [melatonin] | comparable reduction in the release of mast cell mediators |
